Experimental data from patent US10765625B2, “Knottin-drug conjugates and methods of using the same” (THE BOARD OF TRUSTEES OF THE LELAND STANFORD JUNIOR …, priority 2016, dated 2020).
Positions of bridges follow the written chain, without caps; N, C: chain ends. Non-standard residues stand in square brackets, D forms with d. Residues, ends and D or L forms follow the SMILES beside them. Orn(N3) = [N-]=[N+]=NCCC[C@H](N)C(=O)O

Experiments:
[1] = tested on: U87MG cells; experiment: Competition binding assay with AF488-labeled EETI-2.5F (AF488-1), flow cytometry; settings: for IC50: competition with 1 nM AF488-1, 4° C., 3 hours, read-out: IC50 (nM), binding affinity
Procedure: Once the knottin-drug conjugates 5a-d were prepared, their binding affinity to U87MG glioblastoma cells, which are known to have elevated expression of tumor-associated integrins, was tested. […] To measure the relative binding affinities of knottins 1 and 2 and KDCs 5a-d, competition binding assays were performed using AlexaFluor 488-conjugated EETI-2.5F (AF488-1) as previously described (J. W. Kim, et al., J. Am. Chem. Soc. 2015, 137, 6-9). Cells (5×10^4 per sample) were detached with 0.05% Trypsin-EDTA, washed with IBB (25 mM Tris pH 7.4, 150 mM NaCl, 2 mM CaCl2, 1 mM MgCl2, 1 mM MnCl2, and 0.1% bovine serum albumin), and incubated with 1 nM AF488-1 and varying concentrations of competitors in 800 μL of IBB at 4° C. for 3 hours. The cells were washed twice with 800 μL of PBSA (phosphate buffered saline containing 0.1% bovine serum albumin) and the fluorescence of the surface-bound AF488-1 was determined using flow cytometry. The fluorescence was normalized to that of cells treated with AF488-1 alone to obtain the fraction bound. Half-maximal inhibitory concentration (IC50) values were determined by nonlinear regression analysis. Error bars represent the standard deviation of experiments performed in triplicate.

[2] = tested on: U87MG cells; experiment: Cell proliferation, CCK-8 colorimetric assay; type: cell-based; settings: U87MG cells; for Potency / growth inhibition in U87MG cells (in words): 4 d; for EC50: 4 d incubation, vs untreated control, read-out: ED50 (nM), potency
Procedure: (§1) U87MG, and PANC-1 cells were grown in Dulbecco's Modified Eagle Medium (DMEM) with 10% fetal bovine serum (FBS) and 1% penicillin/streptomycin. MDA-MB-468 cells were grown in DMEM and Ham's F-12 medium (DMEM/F12) with 10% FBS and 1% penicillin/streptomycin. A2780 and BxPC3 cells were grown in Roswell Park Memorial Institute medium (RPMI) 1640+L-glutamine, with 10% FBS and 1% penicillin/streptomycin. D270 cells were grown in MEM (Richter's modification, no phenol red) with 10% FBS and 0.1% Gentamicin. Unless otherwise specified, cells were incubated at 37° C., 5% CO2. Flow cytometry was performed using an EMD Millpore Guava EasyCyte 8HT flow cytometer and the resulting data were evaluated using FlowJo software provided by TreeStar, Inc. Cell proliferation was measured using the Dojindo Cell Counting Kit-8 by replacing the media in each well with 100 μL of media containing 10% WST-8. After incubation for 1 h at 37° C., absorbance, A, at 450 nm was measured with a BioTek Synergy H4 microtiter plate reader. The background signal of CCK-8 alone was subtracted from all samples. Cell proliferation was then expressed as a percentage of absorbance relative to the control of untreated cells (Equation 2). Nonlinear regression analysis was performed using GraphPad Prism.
Next, the potency of each KDC was tested in a cell-proliferation experiment. […] Cells were seeded in a 96-well plate at a density of 2,500 cells per well and grown overnight at 37° C., 5% CO2 in DMEM with 10% FBS and 1% penicillin/streptomycin. Cells were subsequently treated with 100 μL of fresh media, containing varying concentrations of drug, protein, or protein-drug conjugate and incubated for 4 d at 37° C., 5% CO2. Cell proliferation was measured according to the method described in Section 1.3. Error bars represent the standard deviation of experiments performed in triplicate. […] Given that the linker must be cleaved to release free Gemcitabine in order for the payload to become active, the low potency of 5b can be explained by the greater stability of the carbamate group as compared to the other linkers tested.

[3] = tested on: U87MG cells; experiment: Premature drug release study: cell proliferation (CCK-8) with hENT1 inhibitor 6 co-administered; type: cell-based; settings: for Fold Increase in ED50 in U87MG Cells: ED50 with 6 / ED50 without 6, minus 1
Procedure: as §1
The relative extent of premature drug-release in the cases of 5a, 5c, and 5d was next determined in order to identify the linker best-suited for delivering the drug payload intracellularly. An established technique for blocking the cellular uptake of Gemcitabine by using S (4-nitrobenzyl)-6-thioinosine (6) was employed, which is known to inhibit human equilibrative nucleoside transporters, such as hENT1. Because hENT1 is a critical regulator of the cellular internalization of Gemcitabine, it was reasoned that by inhibiting its activity with 6, the cytotoxic effect of any drug payload that was released in the extracellular environment could be diminished. It was anticipated that this would allow the distinction between KDCs that were potent due to the undesirable release of Gemcitabine outside of the cell from those that released Gemcitabine intracellularly (FIG. 6). The extent of premature drug release in the extracellular environment was studied by inhibiting activity of nucleoside transporters (such as hENT1) of U87MG cells through the use of the hENT1 inhibitor S-(4-nitrobenzyl)-6-thioinosine (6). […] In a similar fashion, it was expected that for KDCs which released a significant amount of the drug payload in the extracellular environment, an increase in the concentration of 6 should result in a concomitant increase in ED50 value.
Media used to prepare varying concentrations of drug, protein, or protein-drug conjugate also contained varying concentrations of the hENT1 inhibitor, 6. Additionally, prior to treatment, cell were incubated at 37° C., 5% CO2 with fresh media containing the varying concentrations of 6 for 2 h. Cell proliferation was measured using the Cell Counting Kit-8 by replacing the media in each well with 100 μL of media containing 10% WST-8. After incubation for 1 h at 37° C., absorbance at 450 nm was measured with a Synergy H4 microtiter plate reader. ED50 values were determined by nonlinear regression analysis. Example dose-response curves for 3 (FIG. 7) and 5d (FIG. 8) are provided. Cell proliferation was measured according to the method described in Section 1.3. Error bars represent the standard deviation of experiments performed in triplicate.
These values were normalized as Fold Increase in ED50 (defined in Equation 2) by dividing the ED50 of each drug when 6 was co-administered at concentration=C by the ED50 of that same drug when no 6 was added, then subtracting 1 (thus, a “0-fold increase” would mean no increase, while a “1-fold increase” would mean that the ED50 value had doubled). Fold Increase in ED50 for each drug at each concentration of 6 is provided in Table 5, and these values were used to generate FIG. 9.

[4] = tested on: U87MG cells; experiment: Integrin-blocking competition: cell proliferation (CCK-8) after pre-treatment with EETI-2.5F (1); type: cell-based; settings: 1 μM 1, 3 h pre-treatment and co-treatment
Procedure: as §1
One possible explanation for the apparent hENT1-independence of 5d is that its route of internalization could be integrin-mediated. The role of integrin-binding in the biological potency and hENT1-independence of 5d was determined. A competition experiment was carried out in which U87MG cells were pre-treated with unconjugated EETI-2.5F (1) in order to block integrins on the cell surface. The role of integrin-binding was studied by measuring the proliferation of U87MG cells that had been pre-treated with EETI-2.5F (1) when exposed to increasing doses of 3 and KDCs 5a, 5c, and 5d. […] Media used to prepare varying concentrations of drug, protein, or protein-drug conjugate also contained 1 μM of 1. Prior to treatment, cells were incubated for 3 h at 37° C., 5% CO2 with fresh media containing 1 μM 1. After this pre-treatment, cells were incubated with varying concentrations of 5a, 5c, or 5d for 24 h and then media was replaced with fresh media and cells were incubated for an additional 48 h. Cell proliferation was measured using the Cell Counting Kit-8 by replacing the media in each well with 100 μL of media containing 10% WST-8. After incubation for 1 h at 37° C., absorbance at 450 nm was measured with a Synergy H4 microtiter plate reader. Cell proliferation was measured according to the method described in Section 1.3. Error bars represent the standard deviation of experiments performed in triplicate.

SMILES | IC50 [1] [nM] | Potency / growth inhibition in U87MG cells (in words) [2] | EC50 [2] [nM] | Effect of hENT1 inhibitor 6 on potency (ED50) (in words) ([3]; U87MG cells, increasing concentrations of 6 up to 10 μM) | Fold Increase in ED50 in U87MG Cells ([3]; [6] = 0 nM) | Fold Increase in ED50 in U87MG Cells ([3]; [6] = 1 nM) | Fold Increase in ED50 in U87MG Cells ([3]; [6] = 10 nM) | Fold Increase in ED50 in U87MG Cells ([3]; [6] = 100 nM) | Fold Increase in ED50 in U87MG Cells ([3]; [6] = 1000 nM) | Fold Increase in ED50 in U87MG Cells ([3]; [6] = 10000 nM) | Effect of integrin blocking by pre-treatment with 1 on potency (in words) [4] | Binding affinity to U87MG cells (in words) [1]
CC(C)C[C@@H]1NC(=O)[C@@H]2CSSC[C@@H](C(=O)NCC(=O)O)NC(=O)[C@H](Cc3ccccc3)NC(=O)CNC(=O)[C@H](CC(N)=O)NC(=O)[C@@H]3CCCN3C(=O)CNC(=O)[C@@H]3CSSC[C@H](NC(=O)[C@H]([C@@H](C)O)NC(=O)[C@H](CC(C)C)NC(=O)[C@@H]4CCCN4C(=O)[C@@H]4CCCN4C(=O)[C@H](CC(N)=O)NC(=O)[C@H](CC(=O)O)NC(=O)CNC(=O)[C@H](CCCNC(=N)N)NC(=O)[C@@H]4CCCN4C(=O)[C@H](CCCNC(=N)N)NC(=O)[C@@H]4CCCN4C(=O)[C@@H](NC(=O)CN)CSSC[C@H](NC(=O)CNC(=O)[C@H](C)NC1=O)C(=O)N[C@@H](C(C)C)C(=O)N3)C(=O)N[C@@H](CCCn1cc(CCCNC(=O)OC[C@H]3O[C@@H](n4ccc(N)nc4=O)C(F)(F)[C@@H]3O)nn1)C(=O)N[C@@H](CCC(N)=O)C(=O)N[C@@H](CC(=O)O)C(=O)N[C@@H](CO)C(=O)N[C@@H](CC(=O)O)C(=O)N2 [5b] | 3.3 ± 0.2 | lacked significant potency | > 1000 |  |  |  |  |  |  |  |  | 
CC(C)C[C@@H]1NC(=O)[C@@H]2CSSC[C@@H](C(=O)NCC(=O)O)NC(=O)[C@H](Cc3ccccc3)NC(=O)CNC(=O)[C@H](CC(N)=O)NC(=O)[C@@H]3CCCN3C(=O)CNC(=O)[C@@H]3CSSC[C@H](NC(=O)[C@H]([C@@H](C)O)NC(=O)[C@H](CC(C)C)NC(=O)[C@@H]4CCCN4C(=O)[C@@H]4CCCN4C(=O)[C@H](CC(N)=O)NC(=O)[C@H](CC(=O)O)NC(=O)CNC(=O)[C@H](CCCNC(=N)N)NC(=O)[C@@H]4CCCN4C(=O)[C@H](CCCNC(=N)N)NC(=O)[C@@H]4CCCN4C(=O)[C@@H](NC(=O)CN)CSSC[C@H](NC(=O)CNC(=O)[C@H](C)NC1=O)C(=O)N[C@@H](C(C)C)C(=O)N3)C(=O)N[C@@H](CCCn1cc(CCC(=O)OC[C@H]3O[C@@H](n4ccc(N)nc4=O)C(F)(F)[C@@H]3O)nn1)C(=O)N[C@@H](CCC(N)=O)C(=O)N[C@@H](CC(=O)O)C(=O)N[C@@H](CO)C(=O)N[C@@H](CC(=O)O)C(=O)N2 [5a] | 5.2 ± 3.6 | low-nanomolar ED50 values | 8.5 ± 3.3 | increased significantly | 0 | 1.1 ± 0.5 | 3.2 ± 0.3 | 14.5 ± 0.5 | 17.9 ± 0.0 | 134.7 ± 0.4 | did not diminish the potency | 
CC(C)C[C@@H]1NC(=O)[C@@H]2CSSC[C@@H](C(=O)NCC(=O)O)NC(=O)[C@H](Cc3ccccc3)NC(=O)CNC(=O)[C@H](CC(N)=O)NC(=O)[C@@H]3CCCN3C(=O)CNC(=O)[C@@H]3CSSC[C@H](NC(=O)[C@H]([C@@H](C)O)NC(=O)[C@H](CC(C)C)NC(=O)[C@@H]4CCCN4C(=O)[C@@H]4CCCN4C(=O)[C@H](CC(N)=O)NC(=O)[C@H](CC(=O)O)NC(=O)CNC(=O)[C@H](CCCNC(=N)N)NC(=O)[C@@H]4CCCN4C(=O)[C@H](CCCNC(=N)N)NC(=O)[C@@H]4CCCN4C(=O)[C@@H](NC(=O)CN)CSSC[C@H](NC(=O)CNC(=O)[C@H](C)NC1=O)C(=O)N[C@@H](C(C)C)C(=O)N3)C(=O)N[C@@H](CCCN=[N+]=[N-])C(=O)N[C@@H](CCC(N)=O)C(=O)N[C@@H](CC(=O)O)C(=O)N[C@@H](CO)C(=O)N[C@@H](CC(=O)O)C(=O)N2 [compound 2] (H-GCPRPRGDNPPLTC[Orn(N3)]QDSDCLAGCVCGPNGFCG-OH; disulfide 2-24, 14-26, 20-32; N-terminus and C-terminus assumed) | 1.1 ± 1.8 | did not show significant growth-inhibition activity | > 1000 |  |  |  |  |  |  |  |  | low-nanomolar binding affinity
